Measurements from patent publication US9232796B2, “Herbicidal compositions comprising 4-amino-3-chloro-5-fluoro-6-(4-chloro-2-fluoro-3-methoxyphenyl) pyridine-2-carboxylic acid or a derivative thereof and acetyl-CoA carboxylase (ACCase) inhibitors” (DOW AGROSCIENCES LLC, priority 2012, dated 2016).

Tests used:
ECHCG [1] = assay: Example VI in-water applied ternary mixtures, greenhouse, transplanted paddy rice weeds; format: in vivo, Echinochloa crus-galli (L.) Beauv.
Method in brief: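 Compound A (SC, acid-equivalent basis) alone or with cyhalofop-R-butyl or metamifop plus a third herbicide, injected into paddy water of greenhouse-grown transplanted rice and weeds at 1st–4th leaf stage (~29/26 °C). Visual injury scored 0–100% after ~3 weeks vs untreated; expected mixture effects by Colby's equation.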

SCPJU [2] = assay: as above; format: in vivo, Schoenoplectus juncoides (Roxb.) Palla; conditions: 17.5 gai/ha
Method: (§1) Weed seeds or nutlets of the desired test plant species were planted in puddled soil (mud) prepared by mixing a shredded, non-sterilized mineral soil (50.5 percent silt, 25.5 percent clay, and 24 percent sand, with a pH of about 7.6 and an organic matter content of about 2.9 percent) and water at a 1:1 volumetric ratio. The prepared mud was dispensed in 365 mL aliquots into 16-ounce (oz.) non-perforated plastic pots with a surface area of 86.59 square centimeters (cm^2) leaving a headspace of 3 centimeters (cm) in each pot. Mud was allowed to dry overnight prior to planting or transplanting. Rice seeds were planted in Sun Gro MetroMix® 306 planting mixture, which typically has a pH of 6.0 to 6.8 and an organic matter content of about 30 percent, in plastic plug trays. Seedlings at the second or third leaf stage of growth were transplanted into 860 mL of mud contained in 32-oz. non-perforated plastic pots with a surface area of 86.59 cm^2 4 days prior to herbicide application. The paddy was created by filling the headspace of the pots with 2.5 to 3 cm of water. When required to ensure good germination and healthy plants, a fungicide treatment and/or other chemical or physical treatment was applied. The plants were grown for 4-22 days in a greenhouse with an approximate 14 hr. photoperiod which was maintained at about 29° C. during the day and 26° C. during the night. Nutrients were added as Osmocote® (19:6:12, N:P:K+minor nutrients) at 2 g per 16-oz. pot and 4 g per 32-oz. pot. Water was added on a regular basis to maintain the paddy flood, and supplemental lighting was provided with overhead metal halide 1000-Watt lamps as necessary. The plants were employed for testing when they reached the first through fourth true leaf stage.
(§2) Treatments consisted of the benzyl ester of 4-amino-3-chloro-5-fluoro-6-(4-chloro-2-fluoro-3-methoxy-phenyl)pyridine-2-carboxylic acid (Compound A), formulated as an SC (suspension concentrate), an ACCase inhibitor herbicide, and a third herbicidal component, each applied alone and in ternary combination. Forms of compound A were applied on an acid equivalent basis.
The ACCase inhibitor component was applied on an active ingredient basis and included cyhalofop-R-butyl formulated as Clincher® G and metamifop formulated as Metamifop EC. […]
(§3) Treatment requirements for each compound or herbicidal component were calculated based upon the rates being tested, the concentration of active ingredient or acid equivalent in the formulation, an application volume of 1 mL per component per pot, and an application area of 86.59 cm^2 per pot.
For formulated compounds, a measured amount was placed in an individual 100 or 200 mL glass vial and was dissolved in a volume of 1.25% (v/v) Agri-Dex® crop oil concentrate to obtain application solutions. […]

ECHCG [3] = assay: Example V (second) postemergence foliar-applied ternary mixtures, greenhouse, direct seeded rice weeds; format: in vivo, Echinochloa crus-galli (L.) Beauv.; conditions: 17.5 gae/ha
Method in brief: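 Compound A (SC, acid equivalent), an ACCase inhibitor and a third herbicide were sprayed alone and as ternary mixtures postemergence at 187 L/ha with 1.25% v/v crop oil concentrate on greenhouse plants at the 1st–4th true leaf stage (29/26 °C day/night, ~14 h photoperiod). Injury was scored visually at ~3 weeks (0–100%) against untreated plants, and Colby's equation gave the expected mixture effects.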

SCPJU [4] = assay: as above; format: in vivo, Schoenoplectus juncoides (Roxb.) Palla; conditions: 17.5 gae/ha
Text: (§4) Seeds or nutlets of the desired test plant species were planted in a soil matrix prepared by mixing a sandy loam or loam soil (e.g., 32 percent silt, 23 percent clay, and 45 percent sand, with a pH of about 6.5 and an organic matter content of about 1.9 percent) and calcareous grit in an 80 to 20 ratio. The soil matrix was contained in plastic pots with a volume of 1 quart and a surface area of 83.6 square centimeters (cm^2). When required to ensure good germination and healthy plants, a fungicide treatment and/or other chemical or physical treatment was applied. The plants were grown for 8-22 days in a greenhouse with an approximate 14 hr. photoperiod which was maintained at about 29° C. during the day and 26° C. during the night. Nutrients (Peters Excel® 15-5-15 5-Ca 2-Mg and iron chelate) were applied in the irrigation solution as needed and water was added on a regular basis. Supplemental lighting was provided with overhead metal halide 1000-Watt lamps as necessary. The plants were employed for testing when they reached the first through fourth true leaf stage.
as §2, with “inhibitor,” for “inhibitor herbicide,”
The ACCase inhibitor component was applied on an active ingredient basis and included cyhalofop-R-butyl formulated as Clincher® SF, fenoxaprop-p-ethyl formulated as RiceStar® HT, and profoxydim formulated as Aura® 20EC. Other herbicidal components were applied on an active ingredient or acid equivalent basis depending on the compound and included penoxsulam formulated as Grasp® SC, bentazon sodium formulated as Basagran®, triclopyr […] (TEA) salt formulated as Grandstand® R, bispyribac sodium formulated as Regiment® 80WP, imazamox ammonium formulated as Beyond®, benzobicyclon, quinclorac formulated as Facet® 75DF, glyphosate dimethylammonium (DMA) salt formulated as Durango® DMA, glufosinate ammonium formulated as Ignite® 280, fentrazamide formulated as an emulsifiable concentrate (EC), propyrisulfuron formulated as Zeta One®, and indanofan (technical grade material).
Treatment requirements were calculated based upon the rates being tested, the concentration of active ingredient or acid equivalent in the formulation, and a 12 mL application volume at a rate of 187 L/ha.
For treatments comprised of formulated compounds, measured amounts of compounds were placed individually in 25 mL glass vials and diluted in a volume of 1.25% (v/v) Agri-Dex® crop oil concentrate to obtain 12× stock solutions. […]

ECHCO = assay: as above; format: in vivo, Echinochloa colona (L.) Link; conditions: 17.5 gae/ha
Method: (§5) The treated plants and control plants were placed in a greenhouse as described above and watered by sub-irrigation to prevent wash-off of the test compounds. After approximately 3 weeks, the condition of the test plants as compared with that of the untreated plants was determined visually and scored on a scale of 0 to 100 percent where 0 corresponds to no injury or growth inhibition and 100 corresponds to complete kill.
(§6) Colby's equation was used to determine the herbicidal effects expected from the mixtures (Colby, S. R. 1967. Calculation of the synergistic and antagonistic response of herbicide combinations. Weeds 15:20-22.).
(§7) The following equation was used to calculate the expected activity of mixtures containing three active ingredients, A, B, and C: Expected=A+B+C−((A×B+A×C+B×C)/100)+(A×B×C/10000)

CYPIR = assay: as above; format: in vivo, Cyperus iria L.
Method: as §5, §6, §7

ECHOR [5] = assay: as above; format: in vivo, Echinochloa oryzoides (Ard.) Fritsch
Method: as §4, with “When required to ensure good germination and healthy plants, a fungicide treatment and/or other chemical or physical treatment was applied.” left out
as §2, with “inhibitor,” for “inhibitor herbicide,”
For treatments comprised of formulated compounds, measured amounts of compounds were placed individually in 25 mL glass vials and diluted in a volume of 1.25% (v/v) Agri-Dex® crop oil concentrate to obtain 12× stock solutions. […] Application solutions were prepared by adding an appropriate amount of each stock solution (e.g., 1 mL) and diluted to the appropriate final concentrations with the addition of 9 mL of an aqueous mixture of 1.25% (v/v) crop oil concentrate so that the final spray solutions contained 1.25% (v/v) crop oil concentrate.
As required, additional water and/or 97:3 v/v acetone/DMSO was added to individual application solutions so that the final acetone and DMSO concentrations of the application solutions being compared were 8.1% and 0.25%, respectively.
(§8) All stock solutions and applications solutions were visually inspected for compound compatibility prior to application. Spray solutions were applied to the plant material with an overhead Mandel track sprayer equipped with a 8002E nozzles calibrated to deliver 187 L/ha over an application area of 0.503 m^2 at a spray height of 18 inches (46 cm) above average plant canopy height. Control plants were sprayed in the same manner with the solvent blank.
as §5, §6, §7

ECHOR [6] = assay: Example VI in-water applied ternary mixtures, greenhouse, transplanted paddy rice weeds; format: in vivo, Echinochloa oryzoides (Ard.) Fritsch
Method: as §1, §2
(§9) The ACCase inhibitor component was applied on an active ingredient basis and included cyhalofop-R-butyl formulated as Clincher® G and metamifop formulated as Metamifop EC. Other herbicidal components were applied on an active ingredient or acid equivalent basis depending on the compound and included penoxsulam formulated as Grasp® SC, bentazon sodium formulated as Basagran®, triclopyr […] (TEA) salt formulated as Grandstand® R, benzobicyclon formulated as Benzobicyclon, benfuresate formulated as Full Slot® WG, pyraclonil formulated as Pyraclon® Flowable, mefenacet (technical grade material), and pretilachlor (technical grade material).
as §3
(§10) For formulated compounds, a measured amount was placed in an individual 100 or 200 mL glass vial and was dissolved in a volume of 1.25% (v/v) Agri-Dex® crop oil concentrate to obtain application solutions.
(§11) For technical grade compounds, a weighed amount was placed in an individual 100 to 200 mL glass vial and was dissolved in a volume of acetone to obtain concentrated stock solutions.
(§12) Applications were made by injecting with a pipetter appropriate amounts of the application solutions, into the aqueous layer of the paddy. Control plants were treated in the same manner with the solvent blank. Applications were made so that all treated plant material received the same concentrations of acetone and crop oil concentrate.
(§13) The treated plants and control plants were placed in a greenhouse as described above and water was added as needed to maintain a paddy flood. […]

CYPRO = assay: as above; format: in vivo, Cyperus rotundus L.
Method: as §1, §2, §9, §3, §10, §11, §12, §13

FIMMI = assay: as above; format: in vivo, Fimbristylis miliacea (L.) Vahl
Method: as §1, §2, §9, §3, §10, §11, §12, §13

IPOHE = assay: Example V (second) postemergence foliar-applied ternary mixtures, greenhouse, direct seeded rice weeds; format: in vivo, Ipomoea hederacea Jacq.; conditions: Penoxsulam 8.75 gai/ha
Text: as §8, §5, §6, §7

SCPMA = assay: Example VI in-water applied ternary mixtures, greenhouse, transplanted paddy rice weeds; format: in vivo, Schoenoplectus maritimus (L.) Lye; conditions: 5 gai/ha
Method: as §12
as §5, with “water was added as needed” for “watered by sub-irrigation”, “maintain a paddy flood.” for “prevent wash-off of the test compounds.”, “weeks” for “weeks,”
as §6
The following equation was used to calculate the expected activity of mixtures containing three active ingredients, A. B, and C: Expected=A+B+C−((A×B+A×C+B×C)/100)+(A×B×C/10000)

CCN(CC)CC.O=C(O)COc1nc(Cl)c(Cl)cc1Cl [Triclopyr TEA]
Visual Weed Control (%) - 21 DAA ECHCG Obs (ECHCG [1]; 17.5 gai/ha, first set): 0% | Visual Weed Control (%) - 21 DAA ECHCG Obs (ECHCG [1]; 35 gai/ha, second set): 0% | Visual Weed Control (%) - 21 DAA SCPJU Obs (SCPJU [2]): 8%

CCN(CC)CC.O=C(O)COc1nc(Cl)c(Cl)cc1Cl [Triclopyr TEA Salt]
Visual Weed Control (%) - 21 DAA ECHCG Obs (ECHCG [3]): 0% | Visual Weed Control (%) - 21 DAA SCPJU Obs (SCPJU [4]): 43% | Visual Weed Control (%) - 21 DAA ECHCO Obs (ECHCO): 3% | Visual Weed Control (%) - 21 DAA CYPIR Obs (CYPIR; 17.5 gae/ha): 0%

COc1cnc(OC)n2nc(NS(=O)(=O)c3c(OCC(F)F)cccc3C(F)(F)F)nc12 [Penoxsulam]
Visual Weed Control (%) - 22 DAA ECHOR Obs (ECHOR [5]; 4.38 gai/ha): 45% | Visual Weed Control (%) - 22 DAA ECHOR Obs (ECHOR [5]; 8.75 gai/ha): 53% | Visual Weed Control (%) - 21 DAA ECHCG Obs (ECHCG [1]; 1.25 gai/ha, first sub-table): 17% | Visual Weed Control (%) - 21 DAA ECHCG Obs (ECHCG [1]; 2.5 gai/ha, second sub-table): 55% | Visual Weed Control (%) - 24 DAA ECHOR Obs (ECHOR [6]; Table 71, 5 gai/ha): 65% | Visual Weed Control (%) - 24 DAA ECHOR Obs (ECHOR [6]; Table 71, 10 gai/ha): 93% | Visual Weed Control (%) - 21 DAA CYPRO Obs (CYPRO; 1.25 gai/ha): 0% | Visual Weed Control (%) - 24 DAA CYPRO Obs (CYPRO; 2.5 gai/ha): 0% | Visual Weed Control (%) - 24 DAA CYPRO Obs (CYPRO; 5 gai/ha): 0% | Visual Weed Control (%) - 21 DAA FIMMI Obs (FIMMI; 1.25 gai/ha): 33% | Visual Weed Control (%) - 24 DAA FIMMI Obs (FIMMI; 2.5 gai/ha): 60% | Visual Weed Control (%) - 21 DAA IPOHE Obs (IPOHE): 48% | Visual Weed Control (%) - 22 DAA CYPIR Obs (CYPIR; 4.38 gai/ha): 50% | Visual Weed Control (%) - 24 DAA SCPMA Obs (SCPMA): 30%
